Test results taken from publication PMC6880192, “Structure–Effect Relationships of Novel Semi-Synthetic Cannabinoid Derivatives” (Frontiers in Pharmacology, 2019).

Assays:
CB1-receptor [1] = molecular target: T1, CB1-receptor (Homo sapiens, UniProt P21554); assay: biochemical; assay type: binding; conditions: mean ± SEM, n = 3; radioligand [3H]-CP55940
T1 construct: expressed in transfected cells; host or cells: CHO cells, stably transfected with CB1 cDNA (from IMIBIC) and transiently with CRE-luc
T1 sequence (P21554 whole entry): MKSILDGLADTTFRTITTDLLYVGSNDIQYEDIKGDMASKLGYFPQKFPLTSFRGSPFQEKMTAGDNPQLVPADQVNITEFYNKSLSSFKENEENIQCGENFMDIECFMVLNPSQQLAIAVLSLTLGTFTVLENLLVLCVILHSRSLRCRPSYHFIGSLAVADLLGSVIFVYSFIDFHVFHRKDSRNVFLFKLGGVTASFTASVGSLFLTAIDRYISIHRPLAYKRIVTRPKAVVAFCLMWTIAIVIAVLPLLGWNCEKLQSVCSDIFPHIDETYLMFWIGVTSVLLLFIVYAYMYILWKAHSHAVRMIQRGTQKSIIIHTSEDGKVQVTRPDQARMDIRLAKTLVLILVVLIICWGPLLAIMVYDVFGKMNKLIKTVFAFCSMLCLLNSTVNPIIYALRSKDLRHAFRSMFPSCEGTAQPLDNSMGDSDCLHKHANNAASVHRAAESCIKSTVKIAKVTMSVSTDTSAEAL

CB2-receptor [2] = molecular target: T2, CB2-receptor (Homo sapiens, UniProt P34972); assay: Competition binding against [3H]-CP55940, CB2 membranes; conditions: for Ki: mean ± SEM, n = 3, radioligand [3H]-CP55940; for Selectivity CB2/CB1: ratio of Ki values
T2 construct: expressed in transfected cells; host or cells: CHO cells, stably transfected with CB2 cDNA (from IMIBIC) and transiently with CRE-luc
T2 sequence (P34972 whole entry): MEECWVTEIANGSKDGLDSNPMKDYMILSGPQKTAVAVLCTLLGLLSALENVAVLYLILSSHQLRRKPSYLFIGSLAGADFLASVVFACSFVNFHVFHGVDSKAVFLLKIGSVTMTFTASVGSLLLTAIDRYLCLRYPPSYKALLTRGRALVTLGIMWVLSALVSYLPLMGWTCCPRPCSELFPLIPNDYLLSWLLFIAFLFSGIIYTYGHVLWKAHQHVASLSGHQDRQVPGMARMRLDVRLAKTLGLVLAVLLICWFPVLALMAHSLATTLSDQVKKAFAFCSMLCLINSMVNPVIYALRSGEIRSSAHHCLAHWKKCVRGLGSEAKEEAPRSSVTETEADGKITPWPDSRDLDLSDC

CB1-receptor [3] = molecular target: T1, CB1-receptor; assay: cAMP-dependent luciferase assay in CHO-CB1-CRE-luc cells; assay type: cell-based; conditions: for CB1-receptor agonistic activity (fold induction of CRE-luc): 6 h stimulation with test compound; for Effect on CB1: CHO-CB1-CRE-luc, summary classification
Protocol: (§1) Briefly, CHO cells were stably transfected with CB1- and CB2-receptor complementary DNAs (cDNAs) (kindly provided by IMIBIC). Around 10^5 transfected cells per milliliter were seeded in 24-well plates and transiently transfected with the plasmid CRE-luc using Roti-Fect (Carl Roth, Karlsruhe) following the manufacturer’s instructions. The cells were harvested after 24 h. Two transfected cell types resulted: CHO-CB1-CRE-luc and CHO-CB2-CRE-luc.
(§2) To test for agonistic activity at the CB1-receptor, the CHO-CB1-CRE-luc cells were stimulated for 6 h with increasing concentrations of the test compounds ([Bouaboula et al. 1997]). Forskolin (FSK), a strong CB-receptor-independent activator of adenylyl-cyclase was used at 10 µmol/L as a positive control. To investigate the antagonistic activity, the CHO-CB1-CRE-luc cells were pre-incubated for 15 min with the test compounds before stimulation for 6 h with 1 µmol/L WIN ([Zheng et al. 2013]). To investigate CB2-receptor agonistic activity, CHO-CB2-CRE-luc cells were pre-incubated for 15 min with increasing concentrations of the test substances and then for 6 h with 10 µmol/L FSK. WIN, a non-specific agonist at CB2-receptors, was used as a positive control. To confirm CB2-receptor agonistic activities of the test compounds, CHO-CB2-CRE-luc cells were pre-incubated with the specific CB2-receptor antagonist AM630 (1 µmol/L, 6-iodopravadoline; Cayman, distributed by Biozol, Hamburg) ([Ross et al. 1999]; [Zheng et al. 2013]) and then treated with increasing concentrations of the test substances.
(§3) After the stimulations and incubations, cells were lysed in a solution of 25 mmol Tris-phosphate (pH = 7.8), 8 mmol MgCl2, 1 mmol dithiothreitol (DTT), 1% Triton X-100, and 7% glycerol. The luciferase activity was measured with a Luciferase Assay Kit (Promega, Madison) according to the manufacturer’s instructions using an AutoLumat LB 9501 (Berthold Technologies, Bad Wildbad).

CB2-receptor [4] = molecular target: T2, CB2-receptor; assay: cAMP-dependent luciferase assay in CHO-CB2-CRE-luc cells; assay type: cell-based; conditions: for CB2-receptor agonistic activity (fold induction of CRE-luc): 15 min pre-incubation, then 10 µmol/L FSK for 6 h; for Effect on CB2: CHO-CB2-CRE-luc, summary classification
Protocol: as §1, §2, §3

C=C(C)[C@@H]1CCC(C)=C[C@H]1c1c(O)cc(CCC)c(C(=O)OC2CCCCC2)c1O [CHCBDV (8), cyclohexyl cannabidivarinolate]
Ki (CB1-receptor [1]): 13.2 ± 0.9 nM
Ki (CB2-receptor [2]): 4.62 ± 0.5 nM
Selectivity CB2/CB1 (CB2-receptor [2]): 2.9
CB1-receptor agonistic activity (fold induction of CRE-luc) (CB1-receptor [3]): non-selective agonism
Effect on CB1 (CB1-receptor [3]): Agonist
CB2-receptor agonistic activity (fold induction of CRE-luc) (CB2-receptor [4]): non-selective agonism
Effect on CB2 (CB2-receptor [4]): Agonist

C=C(C)[C@@H]1CCC(C)=C[C@H]1c1c(O)cc(CCC)c(C(=O)OCCCCCC)c1O [HCBDV (9), n-hexyl cannabidivarinolate]
Ki (CB1-receptor [1]): 8.3 ± 0.69 nM
Ki (CB2-receptor [2]): 9.9 ± 2.5 nM
Selectivity CB2/CB1 (CB2-receptor [2]): 0.8
CB1-receptor agonistic activity (fold induction of CRE-luc) (CB1-receptor [3]): agonistic effects
Effect on CB1 (CB1-receptor [3]): Agonist
CB2-receptor agonistic activity (fold induction of CRE-luc) (CB2-receptor [4]): no effect
Effect on CB2 (CB2-receptor [4]): No activity

C=C(C)[C@@H]1CCC(C)=C[C@H]1c1c(O)cc(CCC)c(C(=O)OCCO)c1O [2-HECBDV (7), 2-hydroxyethyl cannabidivarinolate]
Ki (CB1-receptor [1]): 5650 nM
Ki (CB2-receptor [2]): 168 ± 39.4 nM
Selectivity CB2/CB1 (CB2-receptor [2]): 33.6
Effect on CB1 (CB1-receptor [3]): Antagonist
CB2-receptor agonistic activity (fold induction of CRE-luc) (CB2-receptor [4]): dose-dependent agonistic effects
Effect on CB2 (CB2-receptor [4]): Agonist
